Data published in the supplement of paper PMC10307832.

What was measured:
Experiment in all cases: relative viability (nuclei count vs DMSO), 5 days (fraction); higher = more cells survive
[1] = compound: Cc1ccc(F)c(NC(=O)Nc2ccc(-c3cccc4[nH]nc(N)c34)cc2)c1 [Linifanib] + CC(=O)Nc1cccc(-n2c(=O)n(C3CC3)c(=O)c3c(Nc4ccc(I)cc4F)n(C)c(=O)c(C)c32)c1 [Trametinib] (partner 0.02 µM)
Procedure, shortened: (§1)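 Lung cancer cell lines, seeded in 1536-well plates, were treated the following day by pin tool with a single drug or with five library-drug doses (not always all listed) in √10 steps on top of a fixed anchor-drug dose. Cells were fixed and nuclei stained in one step after 5 days, and nuclei were counted. Relative viability is the nuclei count for treated wells divided by that for vehicle wells, reported as medians of duplicate plates.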

[2] = compound: Cc1ccc(F)c(NC(=O)Nc2ccc(-c3cccc4[nH]nc(N)c34)cc2)c1 [Linifanib] + C[C@]1(O)C[C@@H](c2nc(-c3ccc4ccc(-c5ccccc5)nc4c3)c3c(N)nccn32)C1 [Linsitinib] (partner 1 µM)
Procedure, shortened: as §1

[3] = compound: Cc1ccc(F)c(NC(=O)Nc2ccc(-c3cccc4[nH]nc(N)c34)cc2)c1 [Linifanib] + Cc1cc(Nc2cc(N3CCN(C)CC3)nc(Sc3ccc(NC(=O)C4CC4)cc3)n2)n[nH]1 [Tozasertib] (partner 0.1 µM)
Procedure, shortened: as §1

[4] = compound: Cc1ccc(F)c(NC(=O)Nc2ccc(-c3cccc4[nH]nc(N)c34)cc2)c1 [Linifanib] + Cc1nc(NC(=O)N2CCC[C@H]2C(N)=O)sc1-c1ccnc(C(C)(C)C(F)(F)F)c1 [Alpelisib] (partner 2 µM)
Procedure, shortened: as §1

[5] = compound: Cc1ccc(F)c(NC(=O)Nc2ccc(-c3cccc4[nH]nc(N)c34)cc2)c1 [Linifanib] + N=C(N)NC(=N)NCCc1ccccc1 [Phenformin] (partner 250 µM)
Procedure, shortened: as §1

[6] = compound: Cc1ccc(F)c(NC(=O)Nc2ccc(-c3cccc4[nH]nc(N)c34)cc2)c1 [Linifanib] + O=C(c1cc(Cc2n[nH]c(=O)c3ccccc23)ccc1F)N1CCN(C(=O)C2CC2)CC1 [Olaparib] (partner 8 µM)
Procedure, shortened: as §1

Row | Cell Line | relative viability ([1]; first compound 0.03162 µM) | relative viability ([1]; first compound 0.1 µM) | relative viability ([1]; first compound 0.3162 µM) | relative viability ([2]; first compound 0.03162 µM) | relative viability ([2]; first compound 0.1 µM) | relative viability ([2]; first compound 0.3162 µM) | relative viability ([3]; first compound 0.03162 µM) | relative viability ([3]; first compound 0.1 µM) | relative viability ([3]; first compound 0.3162 µM) | relative viability ([4]; first compound 0.03162 µM) | relative viability ([4]; first compound 0.1 µM) | relative viability ([4]; first compound 0.3162 µM) | relative viability ([5]; first compound 0.03162 µM) | relative viability ([5]; first compound 0.1 µM) | relative viability ([5]; first compound 0.3162 µM) | relative viability ([6]; first compound 0.03162 µM) | relative viability ([6]; first compound 0.1 µM) | relative viability ([6]; first compound 0.3162 µM)
1 | NCI-H2087 | 0.188 | 0.235 | 0.195 | 1.14 | 1.02 | 0.764 | 0.295 | 0.254 | 0.267 | 1.28 | 1.17 | 1.03 | 0.431 | 0.51 | 0.431 | 0.618 | 0.764 | 0.598
2 | HARA | 0.813 | 0.809 | 0.591 | 0.991 | 0.931 | 0.939 | 0.094 | 0.117 | 0.0893 | 0.864 | 0.983 | 0.756 | 0.446 | 0.539 | 0.476 | 0.855 | 0.837 | 0.745
3 | COR-L 105 | 0.444 | 0.451 | 0.45 | 0.87 | 0.978 | 0.715 | 0.334 | 0.321 | 0.336 | 1 | 1.02 | 1.01 | 0.577 | 0.548 | 0.465 | 0.66 | 0.584 | 0.754
4 | NCI-H1944 | 0.427 | 0.416 | 0.381 | 1.09 | 1.17 | 1.14 | 0.249 | 0.261 | 0.259 | 0.846 | 0.848 | 0.695 | 0.212 | 0.205 | 0.2 | 0.42 | 0.434 | 0.367
5 | LOU-NH91 | 0.775 | 0.798 | 0.762 | 0.899 | 1.01 | 0.954 | 0.713 | 0.693 | 0.68 | 0.686 | 0.771 | 0.704 | 0.734 | 0.806 | 0.732 | 0.909 | 0.956 | 0.869
6 | EMC-BAC-2 | 1.01 | 0.993 | 0.875 | 0.818 | 0.877 | 0.762 | 0.296 | 0.266 | 0.302 | 0.778 | 0.792 | 0.683 | 0.625 | 0.582 | 0.544 | 0.508 | 0.498 | 0.487
7 | BEN | 0.929 | 0.946 | 1.1 | 0.842 | 0.896 | 0.83 | 0.446 | 0.441 | 0.484 | 0.963 | 1.11 | 0.992 | 0.252 | 0.245 | 0.243 | 1.11 | 0.942 | 0.985
8 | EKVX | 0.381 | 0.411 | 0.392 | 1.11 | 1.03 | 0.868 | 0.477 | 0.448 | 0.338 | 0.9 | 1.14 | 0.831 | 0.241 | 0.25 | 0.194 | 0.953 | 0.868 | 0.914
9 | NCI-H1666 | 0.851 | 0.878 | 0.842 | 0.66 | 0.869 | 0.803 | 0.626 | 0.666 | 0.658 | 0.951 | 1.15 | 1.1 | 0.577 | 0.559 | 0.548 | 0.809 | 0.716 | 0.766
10 | UMC-11 | 0.807 | 0.721 | 0.774 | 0.921 | 1.06 | 0.911 | 0.214 | 0.201 | 0.222 | 0.945 | 1.15 | 0.99 | 0.334 | 0.327 | 0.326 | 0.388 | 0.485 | 0.374
11 | SK-MES-1 | 0.528 | 0.568 | 0.507 | 1.04 | 1.12 | 1.03 | 0.882 | 1.06 | 0.819 | 0.883 | 0.852 | 0.885 | 0.704 | 0.692 | 0.653 | 0.636 | 0.795 | 0.71
12 | HCC-827 | 0.559 | 0.522 | 0.514 | 0.992 | 0.999 | 0.996 | 0.442 | 0.419 | 0.384 | 0.986 | 1.06 | 0.922 | 0.432 | 0.453 | 0.382 | 0.651 | 0.711 | 0.654
13 | LK-2 | 0.707 | 0.769 | 0.742 | 0.516 | 0.502 | 0.536 | 0.155 | 0.177 | 0.2 | 0.895 | 1.06 | 1.01 | 0.447 | 0.691 | 0.4 | 0.694 | 0.759 | 0.732
14 | ABC-1 | – | – | – | 0.825 | 1.03 | 0.788 | 0.152 | 0.173 | 0.176 | 0.928 | 1.05 | 0.927 | 0.271 | 0.234 | 0.24 | 0.765 | 0.725 | 0.681
15 | NCI-H2085 | 0.67 | 0.503 | 0.59 | 0.895 | 0.913 | 0.835 | 0.793 | 0.772 | 0.843 | 0.923 | 1.13 | 0.916 | 0.878 | 0.786 | 0.712 | 0.727 | 0.803 | 0.739
16 | NCI-H1792 | 0.389 | 0.459 | 0.439 | 0.386 | 0.522 | 0.535 | – | – | – | 0.631 | 0.738 | 0.776 | 0.517 | 0.519 | 0.337 | 0.337 | 0.532 | 0.375
17 | HCC-44 | 1.05 | 1.07 | 1.03 | 0.741 | 0.71 | 0.664 | 0.558 | 1.05 | 0.812 | 0.82 | 0.824 | 0.793 | 0.29 | 0.195 | 0.248 | 1.02 | 0.916 | 0.952
18 | NCI-H1650 | 0.563 | 0.673 | 0.541 | – | – | – | 0.389 | 0.475 | 0.377 | – | – | – | 0.428 | 0.571 | 0.412 | 0.78 | 0.971 | 0.753
